Assay results from the NIST ThermoML archive (doi:10.1016/j.jct.2018.02.018).

What was measured:
[1] = xn = mol fraction of the nth substance listed; settings: 100 kPa, Liquid, x1 = 1; for speed of sound: Frequency=3 MHz, Single path-length method; for mass density: Vibrating tube method
[2] = refractive index (Na D-line) (dimensionless); xn = mol fraction of the nth substance listed; settings: 100 kPa, Liquid, Standard Abbe refractometry, x1 = 1
[3] = 100 kPa, Liquid; for speed of sound: Frequency=3 MHz, Single path-length method; for mass density: Vibrating tube method
[4] = refractive index (Na D-line) (dimensionless); settings: 100 kPa, Liquid, Standard Abbe refractometry

C[S+](C)[O-] [dimethyl sulfoxide] + NCCO
Settings | mass density, [1] [kg/m3] | refractive index, [2] | speed of sound, [1] [m/s]
293.15 K | 1100 | 1.479 | 1503.9
303.15 K | 1090 | 1.475 | 1469.9
313.15 K | 1080 | 1.47 | 1436.3
323.15 K | 1070 | 1.466 | 1403

C[S+](C)[O-] [dimethyl sulfoxide]
Settings | mass density, [3] [kg/m3] | refractive index, [4] | speed of sound, [3] [m/s]
293.15 K | 1100 | 1.479 | 1503.9
298.15 K | 1095 | 1.477 | 1486.8
303.15 K | 1090 | 1.475 | 1469.9
313.15 K | 1080 | 1.47 | 1436.3
323.15 K | 1070 | 1.466 | 1403

NCc1ccccc1 [benzylamine]
Settings | mass density, [3] [kg/m3] | refractive index, [4] | speed of sound, [3] [m/s]
293.15 K | 983 | 1.544 | 1579.7
298.15 K | 978 | 1.542 | 1560.1
303.15 K | 974 | 1.539 | 1540.2
313.15 K | 965 | 1.534 | 1500
323.15 K | 957 | 1.529 | 1461.1

C[S+](C)[O-] [dimethyl sulfoxide] + CN(C)CCOCCO
Settings | mass density, [1] [kg/m3] | refractive index, [2] | speed of sound, [1] [m/s]
293.15 K | 1100 | 1.479 | 1503.9
303.15 K | 1090 | 1.475 | 1469.9
313.15 K | 1080 | 1.47 | 1436.3
323.15 K | 1070 | 1.466 | 1403

C[S+](C)[O-] [dimethyl sulfoxide] + CN(C)CCCO
Settings | mass density, [1] [kg/m3] | refractive index, [2] | speed of sound, [1] [m/s]
293.15 K | 1100 | 1.479 | 1503.9
303.15 K | 1090 | 1.475 | 1469.9
313.15 K | 1080 | 1.47 | 1436.3
323.15 K | 1070 | 1.466 | 1403

NCCO [2-aminoethan-1-ol]
Settings | mass density, [3] [kg/m3] | refractive index, [4] | speed of sound, [3] [m/s]
293.15 K | 1016 | 1.455 | 1734.2
298.15 K | 1012 | 1.453 | 1718.3
303.15 K | 1008 | 1.451 | 1702.2
313.15 K | 1000 | 1.447 | 1669.4
323.15 K | 992 | 1.443 | 1637.3

CN(C)CCOCCO [2-(2-dimethylaminoethoxy)ethanol]
Settings | mass density, [3] [kg/m3] | refractive index, [4] | speed of sound, [3] [m/s]
293.15 K | 954 | 1.442 | 1403.6
298.15 K | 950 | 1.44 | 1386.7
303.15 K | 946 | 1.438 | 1369.9
313.15 K | 938 | 1.435 | 1336.8
323.15 K | 930 | 1.431 | 1303.9

CN(C)CCCO [3-dimethylamino-1-propanol]
Settings | mass density, [3] [kg/m3] | refractive index, [4] | speed of sound, [3] [m/s]
293.15 K | 885 | 1.437 | 1395.8
298.15 K | 881 | 1.435 | 1377.3
303.15 K | 877 | 1.433 | 1358.8
313.15 K | 869 | 1.429 | 1322.1
323.15 K | 860 | 1.425 | 1285.7

C[S+](C)[O-] [dimethyl sulfoxide] + NCc1ccccc1
Settings | mass density, [1] [kg/m3] | refractive index, [2] | speed of sound, [1] [m/s]
293.15 K | 1100 | 1.479 | 1503.9
303.15 K | 1090 | 1.475 | 1469.9
313.15 K | 1080 | 1.47 | 1436.3
323.15 K | 1070 | 1.466 | 1403
